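These data come from cells grown in 96-well plates and exposed to compound for 48 hours at five concentrations. Here, GI50 denotes the concentration required for 50% inhibition of growth.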 Activity calls are given as the source filed them. Rule as the data show it: active = GI50 up to about 1.1 µM and inactive = higher.
Key:
Test in all cases: NCI tumour cell line growth inhibition, 48 h
NCI-H23 = system: NCI-H23
KM12 = system: KM12
SK-OV-3 = system: SK-OV-3
CAKI-1 = system: CAKI-1
HCT-116 = system: HCT-116
HCC 2998 = system: HCC 2998
SK-MEL-5 = system: SK-MEL-5
U-251 = system: U-251
MOLT-4 = system: MOLT-4
COLO 205 = system: COLO 205
OVCAR-3 = system: OVCAR-3
NCI-H522 = system: NCI-H522
UACC-62 = system: UACC-62
OVCAR-4 = system: OVCAR-4
SNB-19 = system: SNB-19
A549 = system: A549

Measured: GI50

N#C/C(=C\c1ccc2ccccc2c1)c1ccccc1
inactive: NCI-H23 > 100 µM | KM12 27.7 µM | SK-OV-3 26.3 µM | CAKI-1 17.8 µM | HCT-116 30.3 µM | HCC 2998 21.7 µM | SK-MEL-5 16.7 µM | U-251 23 µM | MOLT-4 39.5 µM | COLO 205 17.8 µM | OVCAR-3 13 µM | NCI-H522 12 µM | UACC-62 13.1 µM | OVCAR-4 29.6 µM

CCCCCCCCCCCCn1[nH]c(C)c(C(=S)SCCCCCCCC)c1=O
inactive: NCI-H23 73.3 µM | SNB-19 > 82.8 µM | A549 69.5 µM | KM12 70.1 µM | SK-OV-3 > 93.1 µM | CAKI-1 32.1 µM | HCT-116 29.6 µM | HCC 2998 > 96.6 µM | SK-MEL-5 49 µM | U-251 45 µM | MOLT-4 14 µM | COLO 205 37.2 µM | OVCAR-3 34.8 µM | NCI-H522 31.9 µM | UACC-62 21.1 µM | OVCAR-4 95.5 µM

COc1ccc(/C=C/C(=O)c2sc(N)nc2C)cc1
inactive: NCI-H23 > 100 µM | SNB-19 > 100 µM | A549 > 100 µM | KM12 > 100 µM | SK-OV-3 > 100 µM | CAKI-1 > 100 µM | HCC 2998 > 100 µM | SK-MEL-5 > 100 µM | U-251 > 100 µM | MOLT-4 > 100 µM | COLO 205 > 100 µM | OVCAR-3 41 µM | NCI-H522 > 100 µM | UACC-62 > 100 µM

COc1ccc([C@H]2CC(=O)NCCCCN2)cc1
inactive: NCI-H23 > 100 µM | SNB-19 > 100 µM | A549 > 100 µM | KM12 > 100 µM | SK-OV-3 > 100 µM | CAKI-1 > 100 µM | HCT-116 > 100 µM | SK-MEL-5 > 100 µM | U-251 > 100 µM | MOLT-4 > 100 µM | COLO 205 > 100 µM | NCI-H522 > 100 µM | UACC-62 > 100 µM | OVCAR-4 > 100 µM

O=C1OC(=O)c2c1c(-c1ccccc1)cn2-c1ccc(Cl)cc1
inactive: NCI-H23 > 100 µM | SNB-19 > 100 µM | A549 83 µM | KM12 86.1 µM | SK-OV-3 > 100 µM | HCT-116 > 100 µM | HCC 2998 > 100 µM | SK-MEL-5 3.38 µM | U-251 87.3 µM | MOLT-4 15 µM | COLO 205 10.6 µM | OVCAR-3 54.7 µM | NCI-H522 67.3 µM | UACC-62 1.64 µM

COC(=O)C(C(=O)C(=O)Nc1nc2ccc([N+](=O)[O-])cc2s1)c1nc2ccc(Cl)cc2nc1O (stereo not given)
inactive: NCI-H23 > 100 µM | SNB-19 > 100 µM | A549 > 100 µM | KM12 > 100 µM | SK-OV-3 35.2 µM | CAKI-1 71.3 µM | HCT-116 > 100 µM | HCC 2998 > 100 µM | SK-MEL-5 > 100 µM | U-251 94.8 µM | MOLT-4 > 100 µM | COLO 205 > 100 µM | OVCAR-3 > 100 µM | NCI-H522 > 100 µM | UACC-62 > 100 µM | OVCAR-4 > 100 µM

ClC(/N=N/c1ccccc1)=N/Nc1ccccc1
inactive: NCI-H23 > 100 µM | SNB-19 > 100 µM | A549 > 100 µM | KM12 60.7 µM | SK-OV-3 > 100 µM | CAKI-1 33.6 µM | HCT-116 > 100 µM | HCC 2998 41.8 µM | U-251 > 100 µM | MOLT-4 > 100 µM | COLO 205 > 100 µM | NCI-H522 61.9 µM | OVCAR-4 > 100 µM

COc1nc(NC2OC(COC(C)=O)C(OC(C)=O)C(OC(C)=O)C2OC(C)=O)c(-c2csc(N)n2)c(=O)n1C (stereo not given)
inactive: NCI-H23 66.1 µM | SNB-19 > 100 µM | A549 55 µM | KM12 > 100 µM | SK-OV-3 > 100 µM | CAKI-1 32.3 µM | HCT-116 43.8 µM | SK-MEL-5 43.3 µM | U-251 61.5 µM | MOLT-4 > 100 µM | COLO 205 > 100 µM | OVCAR-3 93.3 µM | NCI-H522 46.5 µM | UACC-62 33.7 µM | OVCAR-4 19.4 µM

N/N=C(\Cc1ccccc1)NN=C(N)N
inactive: NCI-H23 > 100 µM | A549 > 100 µM | KM12 > 100 µM | SK-OV-3 > 100 µM | CAKI-1 > 100 µM | HCT-116 > 100 µM | HCC 2998 > 100 µM | SK-MEL-5 > 100 µM | U-251 > 100 µM | MOLT-4 47.1 µM | COLO 205 > 100 µM | NCI-H522 32.1 µM | UACC-62 > 100 µM | OVCAR-4 > 100 µM

O=C(/C=C/c1ccc(Cl)c(Cl)c1)c1cccc2ccccc12
inactive: NCI-H23 8.17 µM | SNB-19 6.85 µM | A549 15.7 µM | KM12 4.4 µM | SK-OV-3 20.3 µM | CAKI-1 7.36 µM | HCT-116 3.23 µM | HCC 2998 10.4 µM | SK-MEL-5 19.1 µM | U-251 2.74 µM | COLO 205 12.3 µM | OVCAR-3 6.32 µM | NCI-H522 2.97 µM | UACC-62 12.9 µM | OVCAR-4 7.64 µM

O=C1CCC(=O)c2c1c(O)c1ccncc1c2O
inactive: NCI-H23 16.4 µM | SNB-19 26 µM | A549 20.4 µM | KM12 16.3 µM | SK-OV-3 36.5 µM | CAKI-1 23.9 µM | HCT-116 14.7 µM | HCC 2998 15.4 µM | SK-MEL-5 11.4 µM | U-251 23.9 µM | MOLT-4 18.2 µM | COLO 205 7.94 µM | OVCAR-3 2.88 µM | NCI-H522 12 µM | UACC-62 6.4 µM | OVCAR-4 12.9 µM

Cc1ccc(/N=N/c2ccc(N(CCC#N)CCC#N)cc2C)c(Br)c1
inactive: NCI-H23 21.3 µM | SNB-19 32.4 µM | A549 21.5 µM | KM12 3.5 µM | SK-OV-3 10.3 µM | CAKI-1 2.38 µM | HCC 2998 5.28 µM | SK-MEL-5 16.3 µM | U-251 19.1 µM | MOLT-4 7.5 µM | COLO 205 38.1 µM | OVCAR-3 32.6 µM | NCI-H522 18.5 µM | UACC-62 13.5 µM | OVCAR-4 20.4 µM

CC(=O)OCC1=CC2CCC3C(C)(CCC[C@]3(C)COC(C)=O)C23CC[C@H]1C3 (stereo not given in full)
inactive: NCI-H23 33.9 µM | SNB-19 68.4 µM | A549 64 µM | KM12 33.7 µM | SK-OV-3 64.7 µM | CAKI-1 39.6 µM | HCT-116 38.8 µM | HCC 2998 22.3 µM | SK-MEL-5 25.5 µM | U-251 27.9 µM | MOLT-4 20.1 µM | COLO 205 24 µM | OVCAR-3 31.9 µM | NCI-H522 18.8 µM | UACC-62 36.1 µM | OVCAR-4 30.1 µM

NC(=O)N/N=C(\CC1OC(=O)c2ccccc21)c1ccco1 (stereo not given)
inactive: NCI-H23 > 100 µM | SNB-19 > 100 µM | A549 > 100 µM | KM12 > 100 µM | SK-OV-3 > 100 µM | CAKI-1 > 100 µM | HCT-116 > 100 µM | HCC 2998 > 100 µM | SK-MEL-5 > 100 µM | MOLT-4 > 100 µM | COLO 205 > 100 µM | OVCAR-3 > 100 µM | NCI-H522 > 100 µM | UACC-62 > 100 µM | OVCAR-4 > 100 µM

CCN(CC)CCn1c2ccccc2c(=O)c2c(OC)ccc(OC)c21
inactive: NCI-H23 > 100 µM | SNB-19 > 100 µM | A549 63.7 µM | KM12 56.9 µM | SK-OV-3 > 10 µM | CAKI-1 68.5 µM | HCT-116 37.9 µM | U-251 65.6 µM | MOLT-4 36.8 µM | COLO 205 38.7 µM | OVCAR-3 > 100 µM | NCI-H522 > 96.4 µM | UACC-62 > 10 µM | OVCAR-4 > 100 µM

O=C(N/C(=C\c1ccc(Oc2ccc(Cl)c(Cl)c2)cc1)c1nc2ccccc2[nH]1)c1ccccc1
inactive: NCI-H23 13.3 µM | SNB-19 15.6 µM | A549 17.9 µM | KM12 15.3 µM | SK-OV-3 26.2 µM | CAKI-1 21 µM | HCC 2998 16.4 µM | SK-MEL-5 16.1 µM | U-251 14.1 µM | MOLT-4 18.7 µM | COLO 205 21.9 µM | OVCAR-3 17.3 µM | NCI-H522 15.9 µM | UACC-62 13.7 µM | OVCAR-4 16.6 µM

COc1cc2c(cc1OC)C(=O)N1CCCC1C(=O)S2 (stereo not given)
inactive: NCI-H23 > 100 µM | SNB-19 > 100 µM | A549 > 100 µM | KM12 > 100 µM | SK-OV-3 > 100 µM | HCT-116 > 100 µM | HCC 2998 > 100 µM | SK-MEL-5 > 100 µM | U-251 > 100 µM | MOLT-4 > 100 µM | COLO 205 > 100 µM | OVCAR-3 > 100 µM | NCI-H522 > 100 µM | UACC-62 35.6 µM

CC(C)[C@H]1CO[C@@H]2O[C@H](C)CC(=O)N21
inactive: NCI-H23 > 100 µM | SNB-19 > 100 µM | A549 > 100 µM | KM12 > 100 µM | SK-OV-3 > 100 µM | CAKI-1 > 100 µM | HCT-116 > 100 µM | SK-MEL-5 > 100 µM | U-251 > 100 µM | MOLT-4 > 100 µM | COLO 205 > 100 µM | OVCAR-3 > 100 µM | NCI-H522 > 100 µM | UACC-62 > 100 µM | OVCAR-4 > 100 µM

CCC(CC)n1c(C)nc2c1C(=O)c1ccccc1C2=O
inactive: NCI-H23 21.5 µM | SNB-19 71.1 µM | A549 35.3 µM | KM12 36.9 µM | SK-OV-3 > 100 µM | HCT-116 19.3 µM | HCC 2998 77.4 µM | SK-MEL-5 15.7 µM | U-251 36.5 µM | MOLT-4 41.2 µM | COLO 205 26.9 µM | OVCAR-3 26 µM | NCI-H522 48.1 µM | UACC-62 10.3 µM | OVCAR-4 40.7 µM

— ChEMBL document CHEMBL1201862, “PubChem BioAssay data set” (2004)
